Reference: patent US9447028B2, “Therapeutic aryl-amido-aryl compounds and their use” (King's College London, priority 2009, dated 2016)

How the values were obtained:
cortical neurons = test: Survival of cortical neurons in the presence of 10 μM Aβ42; assay type: cell-based, mouse; details: for % Surviving Neurons: 10 μM Aβ42, 3 days; for Neuronal survival in the presence of Aβ42 (in words): 10 μM Aβ42, 0.01-1 μM agonist, compared to control cultures treated only with Aβ42
Procedure: (§1) Neuronal cultures were prepared from embryonic E19 mouse embryos. Fetal brain cortices were dissected and freed from meninges. […] Cortical cells (1×10^5) were plated onto poly-L-lysine (10 μg/mL) coated glass coverslips in 24-well tissue culture plates. They were cultured in Neurobasal medium containing B27 supplement, 2 mM glutamine, 20 μg/mL penicillin stepromycin, and 0.25% glucose. They were maintained for 7 days before been treated. For each treatment, 3 coverslips were used and the experiment was repeated 3 times.
(§2) After 3 days of culture, media was removed and Hoechst 33342 (10 μM) and propidium iodide (10 μM) in PBS was added to the wells for 15 minutes. Only neurons positive for Hoechst 33342 but negative for propidium iodide were counted as surviving neurons. In addition, cortical cultures were treated with agonist alone (0.1 μM) and assayed for chAT, APP, and ADAM10. The antibodies used were α chAT (1:200, Chemicon™), α APP (1:100, Chemicon™) and α ADAM10 (1:200, Chemicon™). Secondary antibody used was anti-rabbit Cy3 or Cy5 conjugated (Jackson™, used at 1:1000). The nuclear marker DAPI (1 μg/mL) was used to stain all cells.
Cortical cultures were treated after 7 days with 10 μM Aβ42 and supplemented with 0.01-1 μM of agonist. After 3 days, the number of surviving cells was determined. […] As atRA is a weak pan-agonist of all the RARs, it was decided to identify the specific receptor involved in this process using RAR specific agonists.

[1] = system: amyloid precursor protein (APP); test: APP expression in cultured cortical neurons; assay type: cell-based, mouse; parameters: dose or concentration left out as unconfirmed; details: Agonist; analysed 3 days later (Table 4)
Procedure: as §1
as §2, with “In addition, cortical cultures were treated with agonist alone (0.1 μM) and assayed for chAT, APP, and ADAM10.” left out, “cells. […]” for “cells.”

[2] = system: disintegrin-metalloproteinases 10 (ADAM10); test: ADAM10 expression in cultured cortical neurons; assay type: cell-based, mouse; parameters: dose or concentration left out as unconfirmed; details: Agonist; analysed 3 days later (Table 5, introduced as ADAM10 data)
Procedure: as §1
as §2, with “In addition, cortical cultures were treated with agonist alone (0.1 μM) and assayed for chAT, APP, and ADAM10.” left out, “cells. […]” for “cells.”

Aβ40 = Aβ40 level in cortex of Tg2576 mice after oral agonist (sandwich ELISA); assay type: in vivo; details: chow with 1 mg/kg agonist for 3 months, six months of age; control = 100
Procedure: (§3) Twenty seven 3 month old Tg2576 mice (Taconic™) were split into 3 groups of 9. One group was fed normal chow, the other groups were fed with 1 mg/Kg RARα agonist, either AM580 or BMS194753. Animals were analysed at 6 and 9 months of age.
(§4) Animals were perfused with PBS. The brain was dissected and one hemisegment was fixed in 4% PFA overnight, 20% sucrose for 3 days, embedded in OCT compound and stored frozen. The cortex was removed form the other hemisegment and the protein extracted.
(§5) To measure Aβ40 and Aβ42 levels, a sandwich ELISA assay kit (Biosource™) was used according to the manufactures instructions. A 1:5000 of the guanidine-soluble extracts were made with TBS containing 5% BSA and 1×protease inhibitor (Calbiochem™) and centrifuged at 16000×g for 20 minutes at 4° C. Samples were diluted 1:10000 in sample diluent provided by the manufacturer.
(§6) These are Tg2576 mice, which over-express the Swedish mutation of APP. These mice overproduce Aβ40 and Aβ42. Three month old mice were fed for 3 months with normal chow or chow supplemented with 1 mg/kg of agonist. At six months of age, there is a dramatic decrease in both Aβ40 and Aβ42 levels in the mice fed with the RARα agonist, as compared to the normal fed mice.

Aβ42 = Aβ42 level in cortex of Tg2576 mice after oral agonist (sandwich ELISA); assay type: in vivo; details: chow with 1 mg/kg agonist for 3 months, six months of age; control = 100
Procedure: as §3, §4, §5, §6

[3] = system: choline acetyltransferase (chAT); test: chAT expression in cultured cortical neurons; assay type: cell-based, mouse; parameters: dose or concentration left out as unconfirmed; details: Agonist; analysed 3 days later
Procedure: as §1
as §2, with “In addition, cortical cultures were treated with agonist alone (0.1 μM) and assayed for chAT, APP, and ADAM10.” left out, “cells. […]” for “cells.”

RARα = molecular target: T1, RARα (Homo sapiens, UniProt P10276); test: Transactivation assay for RAR alpha (gal4-RAR fusion, luciferase reporter, COS-7 cells); assay type: cell-based
T1 construct: gal4 (fusion partner); expressed in transfected cells; host or cells: COS-7
T1 sequence (P10276 183-417 limits assumed): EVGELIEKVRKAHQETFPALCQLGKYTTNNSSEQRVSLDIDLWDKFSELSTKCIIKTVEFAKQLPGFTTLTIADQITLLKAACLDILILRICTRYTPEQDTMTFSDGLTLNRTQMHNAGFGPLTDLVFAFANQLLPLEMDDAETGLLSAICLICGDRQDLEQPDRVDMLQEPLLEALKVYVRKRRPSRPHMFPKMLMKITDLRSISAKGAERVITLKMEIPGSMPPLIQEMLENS
How it was run: (§7)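 COS-7 cells co-transfected with gal4–RAR ligand-binding-domain fusion and pFR-luc reporter, then treated with compound in phenol-red-free DMEM (1% DMSO) for about one day. Luciferase read after lysis with BrightGlo; EC50 values from replicate experiments given as a ratio of means.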

RARβ = molecular target: T2, RARβ (Homo sapiens, UniProt P10826); test: Transactivation assay for RAR beta (gal4-RAR fusion, luciferase reporter, COS-7 cells); assay type: cell-based; details: ratio of test compound EC50 to that of atRA; inactive = no agonist action at the highest concentration tested
T2 construct: gal4 (fusion partner); expressed in transfected cells; host or cells: COS-7
T2 sequence (P10826 183-417 limits assumed): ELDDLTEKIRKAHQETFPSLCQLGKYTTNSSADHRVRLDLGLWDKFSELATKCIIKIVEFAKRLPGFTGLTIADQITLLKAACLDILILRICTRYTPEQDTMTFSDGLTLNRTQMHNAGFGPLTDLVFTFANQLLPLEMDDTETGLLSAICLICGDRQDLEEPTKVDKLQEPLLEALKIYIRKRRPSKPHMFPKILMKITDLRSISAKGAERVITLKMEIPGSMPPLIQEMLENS
How it was run: as §7

RARγ = molecular target: T3, RARγ (Homo sapiens, UniProt P13631); test: Transactivation assay for RAR gamma (gal4-RAR fusion, luciferase reporter, COS-7 cells); assay type: cell-based; details: ratio of test compound EC50 to that of atRA; inactive = no agonist action at the highest concentration tested
T3 construct: gal4 (fusion partner); expressed in transfected cells; host or cells: COS-7
T3 sequence (P13631 185-419 limits assumed): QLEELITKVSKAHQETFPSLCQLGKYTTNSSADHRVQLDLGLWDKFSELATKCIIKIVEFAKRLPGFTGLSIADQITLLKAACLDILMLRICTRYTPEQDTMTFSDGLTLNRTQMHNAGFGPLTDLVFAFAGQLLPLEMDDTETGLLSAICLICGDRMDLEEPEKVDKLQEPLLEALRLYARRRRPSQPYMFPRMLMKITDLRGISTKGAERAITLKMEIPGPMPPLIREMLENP
How it was run: as §7

RARα/RARβ ratio (*) (RARα; fold-selectivity for RARα over RARβ) | RARα activity ratio (RARα; ratio of test compound EC50 to that of atRA on the same plate) | RARβ activity ratio (RARβ) | RARγ activity ratio (RARγ) | SMILES | % Surviving Neurons (cortical neurons; 0.01 μM agonist) | % Surviving Neurons (cortical neurons; 0.1 μM agonist) | % Surviving Neurons (cortical neurons; 1.0 μM agonist) | Neuronal survival in the presence of Aβ42 (in words) (cortical neurons) | Number of APP Neurons [1] | Number of APP Neurons [2] | % of Aβ40 (Aβ40) | % of Aβ42 (Aβ42) | Number of chAT Neurons [3]
– | – | – | – | CC1(C)CCC(C)(C)c2cc(C(=O)Nc3ccc(C(=O)O)cc3)ccc21 [AM 580] | 52 ± 7% | 70 ± 6% | 99 ± 9% | notably better | 11 ± 2 | 19 ± 3 | 4 ± 1% | 8 ± 1% | –
– | – | – | – | COc1ccc(-c2ccc3cc(C(=O)O)ccc3c2)cc1C1(C)CCCCC1 [CD 2019] | 52 ± 3% | 58 ± 5% | 60 ± 5% | notably worse | 23 ± 2 | 1 ± 0.5 | – | – | 8 ± 1
– | – | – | – | CC1(C)C(=O)C(C)(C)c2cc(C(=O)Nc3ccc(C(=O)O)cc3)ccc21 [BMS 194753] | 57 ± 7% | 69 ± 3% | 88 ± 4% | notably better | 10 ± 2 | 20 ± 2 | 3 ± 0.5% | 7 ± 1% | 37 ± 3
– | – | – | – | O=C(O)c1ccc2cc(-c3ccc(O)c(C45CC6CC(CC(C6)C4)C5)c3)ccc2c1 [CD 437] | 53 ± 3% | 30 ± 11% | 26 ± 10% | notably worse | 22 ± 3 | 2 ± 0.75 | – | – | 2 ± 1
1 | 1 | 1 | 1 | CC1=C(/C=C/C(C)=C/C=C/C(C)=C/C(=O)O)C(C)(C)CCC1 [atRA, all trans retinoic acid] | 53 ± 4% | 69 ± 4% | 82 ± 4% | increase in cell survival with increasing dose | 15 ± 2 | 11 ± 1.5 | – | – | 16 ± 2
